Data reported in patent US20100261693A1, “METHOD FOR TREATING CUSHING'S SYNDROME” (priority 2007, published 2010).

Experiments:
[1] = tested on: Cushing's syndrome secondary to ectopic ACTH secretion; test: Case-study: mifepristone in a patient with Cushing's syndrome secondary to ectopic ACTH secretion; assay type: in vivo, human; details: person
Text: A subject, first presented with clinical symptoms of Cushing's syndrome in August 2006, and they were diagnosed with Cushing's syndrome secondary to ectopic ACTH secretion in March 2007.

[2] = tested on: Cushing's syndrome (ectopic ACTH secretion); details: cited from earlier work
[3] = 200 mg three times a day, after 2 weeks of treatment

Structure (SMILES): CC#C[C@]1(O)CC[C@H]2[C@@H]3CCC4=CC(=O)CCC4=C3[C@@H](c3ccc(N(C)C)cc3)C[C@@]21C [mifepristone]
- concomitant insulin treatment [1, 3]: insulin was stopped
- dose of concomitant metformin [1, 3]: decreased by two
- general clinical consequences of hypercortisolism [1, 3]: rapidly improved
- glycemia [1, 3]: returned to normal
- dose of enalapril previously administered for hypertension ([1]; mifepristone 200 mg three times a day): decreased from 30 mg to 10 mg
- outcome of fractioned dosage ([2]; fractioned dosage, young child): successfully given
- efficacy in clinical trials ([2]; high-dose mifepristone once a day): some efficacy
